# Like-named read-outs stand apart in the source and are kept apart here.
# Legend:
# [1] = system: Magnaporthe grisea (Pyricularia oryzae—PYRIOR); test: microbe, parasite or virus in culture; format: cell-based; details: Pyricularia oryzae, read-out: PYRIOR in vitro Growth Inhibition
# [2] = system: Rhizoctonia solani (RHIZSO); test: microbe, parasite or virus in culture; format: cell-based; details: Rhizoctonia solani, read-out: RHIZSO in vitro Growth Inhibition
# [3] = system: Mycosphaerella graminicola (Septoria tritici—SEPTTR); test: In vitro fungal growth inhibition, Mycosphaerella graminicola (SEPTTR); format: cell-based; details: Zymoseptoria tritici, read-out: SEPTTR in vitro Growth Inhibition
# [4] = system: Stagonospora nodorum (Leptosphaeria nodorum—LEPTNO); test: In vitro fungal growth inhibition, Stagonospora nodorum (LEPTNO); format: cell-based; details: Leptosphaeria, read-out: LEPTNO in vitro Growth Inhibition
# [5] = system: Ustilago maydis (USTIMA); test: microbe, parasite or virus in culture; format: cell-based; details: Mycosarcoma maydis, read-out: USTIMA in vitro Growth Inhibition
# [6] = system: Phytophthora infestans (PHYTIN); test: microbe, parasite or virus in culture; format: cell-based; details: Phytophthora infestans, read-out: PHYTIN in vitro Growth Inhibition
# [7] = system: Phytophthora infestans—PHYTIN; test: whole plant or invertebrate; format: in vivo; details: Phytophthora, in Solanum lycopersicum, 24 h, read-out: PHYTIN in vivo 1 Day Protectant
# [8] = system: Puccinia recondita—PUCCRT; test: Brown Rust of Wheat, in vivo whole plant, 24 Hour Protectant; details: Puccinia, read-out: PUCCRT in vivo 1 Day Protectant
# [9] = system: Erysiphe graminis—ERYSGT; test: Powdery Mildew of Wheat, in vivo whole plant, 24 Hour Protectant; details: Erysiphe, read-out: ERYSGT in vivo 1 Day Protectant
# [10] = system: Septoria tritici—SEPTTR; test: Leaf Blotch of Wheat, in vivo whole plant, 24 Hour Protectant; details: Zymoseptoria tritici, 24 h, read-out: SEPTTR in vivo 1 Day Protectant
# [11] = system: Leptosphaeria nodorum—LEPTNO; test: Glume Blotch of Wheat, in vivo whole plant, 24 Hour Protectant; details: for pest or weed control at 100 ppm: Leptosphaeria, read-out: LEPTNO in vivo 1 Day Protectant
# [12] = 100 ppm spray, wheat, 24 hour protectant, control of fungal infection vs untreated plants
Structure (SMILES),inhibition at 25 ppm [1],inhibition at 25 ppm [2],inhibition at 25 ppm ([3]; 25 ppm in growth medium),inhibition at 25 ppm ([4]; 25 ppm in growth medium),inhibition at 25 ppm [5],inhibition at 25 ppm [6],pest or weed control at 100 ppm [7],"pest or weed control at 100 ppm [8, 12]","pest or weed control at 100 ppm [9, 12]","pest or weed control at 100 ppm [10, 12]","pest or weed control at 100 ppm [11, 12]","LEPTNO in vivo 1 Day Protectant [11, 12]",inhibition at 25 ppm [3],inhibition at 25 ppm [4],pest or weed control at 100 ppm ([8]; 24 h),pest or weed control at 100 ppm ([9]; 24 h),pest or weed control at 100 ppm [10],pest or weed control at 100 ppm ([11]; 24 h)
COc1ccnc(C(=O)N[C@H]2COC(=O)[C@H](Cc3ccccc3)[C@@H](O)[C@H](C)OC2=O)c1O [Compound 383],< 80%,< 80%,< 80%,< 80%,< 80%,< 80%,< 25%,25 to 74%,< 25%,< 25%,< 25%,,,,,,,
C=C(C)C(=O)O[C@H]1[C@H](C)OC(=O)[C@@H](NC(=O)c2nccc(OC)c2O)COC(=O)[C@@H]1Cc1ccccc1 [Compound 386],< 80%,< 80%,> 80%,> 80%,< 80%,< 80%,< 25%,25 to 74%,25 to 74%,25 to 74%,,+ +,,,,,,
COc1ccnc(C(=O)N[C@H]2COC(=O)[C@H](Cc3ccccc3)[C@@H](OC(=O)C3CC3)[C@H](C)OC2=O)c1O [Compound 387],> 80%,> 80%,> 80%,> 80%,> 80%,< 80%,< 25%,25 to 74%,25 to 74%,25 to 74%,,+ +,,,,,,
COc1ccnc(C(=O)N[C@H]2COC(=O)[C@H](Cc3ccccc3)[C@@H](OC(=O)C3CCCC3)[C@H](C)OC2=O)c1O [Compound 391],> 80%,< 80%,> 80%,> 80%,> 80%,< 80%,< 25%,25 to 74%,< 25%,25 to 74%,,+ +,,,,,,
COc1ccnc(C(=O)N[C@H]2COC(=O)[C@H](Cc3ccccc3)[C@@H](OC(=O)C3CCCCC3)[C@H](C)OC2=O)c1O [Compound 392],> 80%,< 80%,> 80%,> 80%,< 80%,< 80%,< 25%,25 to 74%,25 to 74%,25 to 74%,,+ +,,,,,,
COc1ccnc(C(=O)N[C@H]2COC(=O)[C@H](Cc3ccccc3)[C@@H](OC(=O)C3C(C)CCCC3C)[C@H](C)OC2=O)c1O (stereo partly shown) [Compound 393],> 80%,< 80%,> 80%,> 80%,> 80%,< 80%,< 25%,25 to 74%,< 25%,25 to 74%,25 to 74%,,,,,,,
COc1ccnc(C(=O)N[C@H]2COC(=O)[C@H](Cc3ccccc3)[C@@H](OC(=O)Cc3ccccc3)[C@H](C)OC2=O)c1O [Compound 395],< 80%,< 80%,,,> 80%,< 80%,< 25%,,,,,,> 80%,> 80%,25 to 74%,< 25%,25 to 74%,25 to 74%
COc1ccnc(C(=O)N[C@H]2COC(=O)[C@H](Cc3ccccc3)[C@@H](OC(=O)/C=C(\C)CCC=C(C)C)[C@H](C)OC2=O)c1O [Compound 396],> 80%,< 80%,> 80%,> 80%,< 80%,< 80%,< 25%,25 to 74%,< 25%,25 to 74%,25 to 74%,,,,,,,

# — patent US6706740B2, “Fungicidal heterocyclic aromatic amides and their compositions, methods of use and preparation” (Dow AgroSciences LLC, priority 1999, dated 2004)
